# According to article PMC9181938, “Fluorinated Analogues of Lepidilines A and C: Synthesis and Screening of Their Anticancer and Antiviral Activity” (Molecules, 2022):
# Like-named read-outs stand apart in the source and are kept apart here.
# How the values were obtained:
# [1] = Cytotoxicity MTT assay (0.1–1000 µM), CC50; format: cell-based, Cercopithecus aethiops; conditions: Cercopithecus aethiops, Vero cells, read-out: CC50 Normal Cell Lines Vero
# [2] = Cytotoxicity MTT assay (0.1–1000 µM), CC50; format: cell-based, Macaca mulatta; conditions: Macaca mulatta, LLC-MK2 cells, LLC-MK2, MTT, 48 h; read-out: CC50 Normal Cell Lines LLC-MK2
# [3] = Cytotoxicity MTT assay (0.1–1000 µM), CC50; format: cell-based, Mus musculus; conditions: Mus musculus, NCTC clone 929 cells, NCTC clone 929, MTT, 48 h; read-out: CC50 Normal Cell Lines NCTC Clone 929
# [4] = Cytotoxicity MTT assay (0.1–1000 µM), CC50; format: cell-based, Human; conditions: human, MRC-5 cells, MRC-5, MTT, read-out: CC50 Normal Cell Lines MRC-5
# [5] = Cytotoxicity MTT assay (0.1–1000 µM), CC50; format: cell-based, Human; conditions: human, HeLa cells
# [6] = Cytotoxicity MTT assay (0.1–1000 µM), CC50; format: cell-based, Human; conditions: human, A549 cells, read-out: CC50 Cancer Cell Lines A549
# [7] = Cytotoxicity MTT assay (0.1–1000 µM), CC50; format: cell-based, Human; conditions: human, HepG2 cells, read-out: CC50 Cancer Cell Lines HepG2
# [8] = test system: Human herpesvirus 5 (HCMV); assay: Antiviral activity assay (0.1–1000 µM), IC50, plaque reduction; format: cell-based; conditions: Human betaherpesvirus 5, 20 PFU/well
# Experimental: (§1) Antiviral properties of compounds 1e–1g, 1e[PF6], 8a–8d, and 9a were assessed against five viruses: Human herpesvirus 1 (HSV-1, VR-539), Human parainfluenza virus type 3 (HPIV-3, VR-93), Human adenovirus 5 (AdV5, VR-5), Human herpesvirus 5 (HCMV, VR-977), and Encephalomyocarditis virus (EMCV, VR-1479). Viruses were purchased from the American Type Culture Collection (ATCC, Manassas, VA, USA).
# (§2) All tested compounds were dissolved in DMSO (dimethyl sulfoxide, Sigma-Aldrich, Darmstadt, Germany) and then suspended in Minimum Essential Medium (MEM; Sigma-Aldrich, Darmstadt, Germany) supplemented with 2% heat-inactivated fetal bovine serum (FBS; Sigma-Aldrich, Darmstadt, Germany), 2 mM L-glutamine (Sigma-Aldrich, Darmstadt, Germany), and 100 units/mL penicillin G with […] streptomycin (Sigma-Aldrich, Darmstadt, Germany).
# (§3) Investigated cells were propagated in Minimum Essential Medium (MEM; Sigma-Aldrich, Darmstadt, Germany) supplemented with 10% heat-inactivated fetal bovine serum (FBS; Sigma-Aldrich, Darmstadt, Germany) and 100 units/mL penicillin G with […] streptomycin (Sigma-Aldrich, Darmstadt, Germany). After reaching 80–90% confluency, cells were harvested with trypsin (Life Technologies, Warsaw, Poland) and seeded into 96-well microplates at 2 × 10^5 cells/mL after overnight incubation of cells at 37 °C in a humidified atmosphere containing 5% CO2.
# (§4) The culture medium was removed from confluent cells grown in 96-well microplates, and the cells were inoculated with virus solutions in MEM supplemented with 2% FBS and antibiotics (HSV-1 MOI 0.005, 1000 virions/mL; HPIV-3 MOI 0.01, 2000 virions/mL; AdV5 MOI 0.005, 1000 virions/mL; EMCV 0.005, 1000 virions/mL; HCMV 20 PFU/well (plaque-forming units per well). After a 1-h (HSV-1, HPIV-3, AdV5, and EMCV) or 2-h adsorption period (HCMV), residual viral particles were removed, and infected cells were further incubated with MEM supplemented with 2% FBS containing compound concentrations in the range from 0.1 to 1000 µM [38]. All experiments were carried out in triplicate. The cell monolayers were incubated with the investigated compounds at 37 °C in a humidified atmosphere containing 5% CO2 until a cytopathic effect (CPE) was visible. Viral infection was evaluated by the MTT assay (as described previously) or plaque reduction assay. HCMV plaques were counted under an inverted microscope, Olympus IX73 (Olympus, Tokyo, Japan). Antiviral activity was expressed as the concentration required to reduce the number of viral plaques to 50% of the control (virus-infected but untreated).
# [9] = test system: Encephalomyocarditis virus (EMCV); assay: Antiviral activity assay (0.1–1000 µM), IC50; format: cell-based; conditions: Cardiovirus A, MOI 0.005, read-out: IC50 EMCV
# Experimental: as §1, §2, §3, §4
# [10] = test system: Human adenovirus 5 (AdV5); assay: Antiviral activity assay (0.1–1000 µM), IC50; format: cell-based; conditions: Human mastadenovirus C
# Experimental: as §1, §2, §3, §4
# [11] = test system: Human herpesvirus 1 (HSV-1); assay: Antiviral activity assay (0.1–1000 µM), IC50; format: cell-based; conditions: Human alphaherpesvirus 1; HSV-1, MOI 0.005
# Experimental: as §1, §2, §3, §4
# [12] = test system: Human parainfluenza virus type 3 (HPIV-3); assay: Antiviral activity assay (0.1–1000 µM), IC50; format: cell-based; conditions: Human respirovirus 3, HPIV-3, MOI 0.01; read-out: IC50 HPIV-3
# Experimental: as §1, §2, §3, §4
# LLC-MK2 cells = assay: Cytotoxicity MTT assay (0.1–1000 µM), CC50; format: cell-based, Macaca mulatta; conditions: LLC-MK2, MTT, 48 h; read-out: CC50 Normal Cell Lines LLC-MK2
# [13] = Cytotoxicity screening at 10 µM (MTT); format: cell-based, Cercopithecus aethiops; conditions: Cercopithecus aethiops, Vero cells, read-out: Cell line (viability %) Vero
# [14] = Cytotoxicity screening at 10 µM (MTT); format: cell-based, Macaca mulatta; conditions: Macaca mulatta, LLC-MK2 cells, read-out: Cell line (viability %) LLC-MK2
# [15] = Cytotoxicity screening at 10 µM (MTT); format: cell-based, Mus musculus; conditions: Mus musculus, NCTC clone 929 cells, read-out: Cell line (viability %) NCTC clone 929
# [16] = Cytotoxicity screening at 10 µM (MTT); format: cell-based, Human; conditions: human, MRC-5 cells, read-out: Cell line (viability %) MRC-5
# [17] = Cytotoxicity screening at 10 µM (MTT); format: cell-based, Human; conditions: human, HeLa cells, read-out: Cell line (viability %) HeLa
# [18] = test system: Encephalomyocarditis virus (EMCV); assay: Antiviral screening at 10 µM; format: cell-based; conditions: Cardiovirus A, EMCV-infected cells, read-out: Cell line (viability %) EMCV
# Experimental: (§5) Antiviral properties of compounds 1a, 1c, 1a[PF6], 1c[PF6], 9b[PF6], 9c[PF6], 10a–10d, 2a, and 2b were assessed against five viruses: Human herpesvirus 1 (HSV-1, VR-539), Human parainfluenza virus type 3 (HPIV-3, VR-93), Human adenovirus 5 (AdV5, VR-5), Human herpesvirus 5 (HCMV, VR-977), and Encephalomyocarditis virus (EMCV, VR-1479). Viruses were purchased from the American Type Culture Collection (ATCC, Manassas, VA, USA).
# as §2
# (§6) Vero, LLC-MK2, NCTC clone 929, MRC-5, and HeLa cells were propagated in Minimum Essential Medium (MEM; Sigma-Aldrich, Darmstadt, Germany) supplemented with 10% heat-inactivated fetal bovine serum (FBS; Sigma-Aldrich, Darmstadt, Germany) and 100 units/mL penicillin G with […] streptomycin (Sigma-Aldrich, Darmstadt, Germany). Upon reaching 80–90% confluency, cells were harvested with 0.25% trypsin in 1 mM EDTA (Life Technologies, Warsaw, Poland) and seeded onto 96-well microplates at 2 × 10^5 cells/mL. After overnight incubation of cells at 37 °C in a humidified atmosphere containing 5% CO2, the culture medium was removed, and cells were inoculated with the respective virus solution in MEM supplemented with 2% FBS and antibiotics (HSV-1 MOI 0.005, 1000 virions/mL; HPIV-3 MOI 0.01, 2000 virions/mL; AdV5 MOI 0.005, 1000 virions/mL, EMCV MOI 0.005, 1000 virions/mL, HCMV 20 PFU (plaque forming units) per well). After a 1-h (HSV-1, HPIV-3, AdV5, and EMCV) or 2-h adsorption period (HCMV), the residual virus was removed, and the infected cells were further incubated with a 100 μL freshly prepared solution of tested compounds diluted with a maintenance medium supplemented with 2% FBS to obtain compound concentrations of 10 µM. The final concentration of DMSO in the medium was 0.1%. All experiments were carried out in triplicate. The cells monolayers were incubated with the compounds at 37 °C in a humidified atmosphere containing 5% CO2 until the typical cytopathic effect (CPE) was visible. Viral infection was evaluated by the MTT assay or plaque reduction assay (HCMV). After incubation with drugs, the cells were treated with 3-(4,5-dimethylthiazol-2-yl)-2,5-diphenyltetrazolium bromide dye solution (MTT, Sigma-Aldrich, Darmstadt, Germany) (25 μL, 5 mg/mL) for 2 h and lysed with solvent solution (100 μL) containing: DMF (Sigma-Aldrich, Darmstadt, Germany) (45 mL), SDS (Sigma-Aldrich, Darmstadt, Germany) (13.5 g), and distilled water (55 mL). After overnight incubation at 37 °C, the optical density at 550 nm and a reference wavelength of 670 nm were measured on a microplate spectrophotometer, Varioskan Lux (Thermo Fisher Scientific, Waltham, MA, USA). The number of HCMV plaques was counted under an inverted microscope Olympus IX73 (Olympus, Tokyo, Japan).
# [19] = test system: Human adenovirus 5 (AdV5); assay: Antiviral screening at 10 µM; format: cell-based; conditions: Human mastadenovirus C, AdV5-infected cells, read-out: Cell line (viability %) AdV5
# Experimental: as §5, §2, §6
# [20] = test system: Human herpesvirus 1 (HSV-1); assay: Antiviral screening at 10 µM; format: cell-based; conditions: Human alphaherpesvirus 1, antiviral screening, HSV-1-infected cells, read-out: Cell line (viability %) HSV-1
# Experimental: as §5, §2, §6
# [21] = test system: Human parainfluenza virus type 3 (HPIV-3); assay: Antiviral screening at 10 µM; format: cell-based; conditions: Human respirovirus 3, antiviral screening, HPIV-3-infected cells, read-out: Cell line (viability %) HPIV-3
# Experimental: as §5, §2, §6
# [22] = test system: Human herpesvirus 5 (HCMV); assay: Antiviral screening at 10 µM, plaque reduction; format: cell-based; conditions: Human betaherpesvirus 5, antiviral screening, HCMV-infected cells, read-out: Cell line (viability %) HCMV
# Experimental: as §5, §2, §6
# [23] = MTT, 48 h, read-out: CC50 Cancer Cell Lines HeLa
# [24] = AdV5, MOI 0.005, read-out: IC50 AdV5
SMILES,CC50 at 48 h [1],CC50 at 48 h [2],CC50 at 48 h [3],CC50 at 48 h [4],"CC50 at 48 h [5, 23]",CC50 at 48 h [6],CC50 at 48 h [7],IC50 [8],IC50 [9],"IC50 [10, 24]",IC50 [11],IC50 [12],melting point,further results
"Cc1c(C)[n+](Cc2cccc(OC(F)(F)F)c2)cn1Cc1ccccc1.[Cl-] [Compound 1f, 1-Benzyl-4,5-dimethyl-3-[3-(trifluoromethoxy)benzyl]imidazolium chloride]",38 ± 4 µM,59 ± 1 µM,48.3 ± 2.89 µM,36.7 ± 2.31 µM,0.039 ± 0.001 µM,1.6 ± 0.173 µM,152 ± 2 µM,> 36.7 µM,> 48.3 µM,> 3.9e-08 M,> 38 µM,> 59 µM,108 to 110 °C,–
"Cc1c(C)[n+](OCc2ccccc2)cn1Cc1cccc(F)c1.[Br-] [Compound 8a, 3-Benzyloxy-1-(3-fluorobenzyl)-4,5-dimethylimidazolium bromide]",250 ± 10 µM,327 ± 7.64 µM,257 ± 10.4 µM,206 ± 8.61 µM,20 ± 3.46 µM,7.5 ± 0.5 µM,361.7 ± 2.89 µM,> 206 µM,> 257 µM,> 2e-05 M,> 250 µM,> 327 µM,124 to 126 °C,–
"Cc1c(C)[n+](OCc2ccccc2)cn1Cc1cccc(OC(F)(F)F)c1.[Br-] [Compound 8b, 3-Benzyloxy-4,5-dimethyl-1-[3-(trifluoromethoxy)benzyl]imidazolium bromide]",143 ± 2.89 µM,257 ± 6.77 µM,90.7 ± 4.16 µM,24.3 ± 2.08 µM,7.33 ± 0.76 µM,5.5 ± 0.5 µM,163 ± 6.43 µM,> 24.3 µM,> 90.7 µM,> 7.33e-06 M,> 143 µM,> 257 µM,108 to 110 °C,–
"FC(F)(F)c1cccc(C[n+]2cn(Cc3ccccc3)c(-c3ccccc3)c2-c2ccccc2)c1.[Br-] [Compound 9a, 1-Benzyl-4,5-diphenyl-3-[3-(trifluoromethyl)benzyl]imidazolium bromide]",–,0.04 to 0.347 µM,3.75 ± 0.087 µM,–,0.019 ± 0.001 µM,0.035 ± 0.005 µM,6.9 ± 0.361 µM,> 0.09 µM,> 3.75 µM,> 1.9e-08 M,> 0.347 µM,> 0.04 µM,216 to 217 °C,CC50 (LLC-MK2 cells): 0.04 ± 0.002 µM
COc1cccc(Cn2c(-c3ccccc3)c(-c3ccccc3)n(Cc3ccccc3)c2=S)c1 [Compound 10d],–,–,–,–,< 400 µM,–,–,–,–,–,–,–,–,"CC50 at 48 h ([5]; Table S2, range 0.1-1000 µM, read-out: Cell line (CC50 M) HeLa): 318 ± 47.5 µM; viability at 48 h, 10 µM [13]: 95.8%; viability at 48 h, 10 µM [14]: 53.6%; viability at 48 h, 10 µM [15]: 91.5%; viability at 48 h, 10 µM [16]: 96.8%; viability at 48 h, 10 µM [17]: 74%; IC50 ([10]; Table S4, range 0.1-1000 µM, AdV5, read-out: IC50 (M) AdV5): > 0.000318 M; viability at 10 µM [18]: 8.5%; viability at 10 µM [19]: 68%; viability at 10 µM [20]: 14.6%; viability at 10 µM [21]: 10.6%; viability at 10 µM [22]: 1.9%"
